US9717733B2, “Edible plant-derived microvesicle compositions including conjugated therapeutic agents and methods for using the same” (priority 2014, dated 2017)

Key:
[1] = system: DSS-induced colitis in mice; assay: DSS-induced colitis, therapeutic effect of GMTX; format: in vivo, mouse; conditions: 5 mg/kg oral on day 3, 5 and 6 of DSS
Method: Colitis was induced in mice by addition of 2% (wt/vol) DSS (MW 36-50 KD molecular weight, MP Biomedicals, OH) in their drinking water for the duration of the study. DSS solution was freshly prepared every other day. Body weight and physical activity were monitored daily. To test the protective effect of GDNs, mice fasted for 4 h were orally given either PBS or 10 mg/kg of GDNs daily for 7 days and then treated with 2% DSS in drinking water for 7 days to induce colitis with continued administration of GDNs. To test the therapeutic effect of GMTX, colitis was first induced in mice by providing 2% DSS in their drinking water. On day 3, 5 and 6 of DSS-induced colitis, mice were treated with free MTX (5 mg/kg body weight) or GMTX (MTX equaled to 5 mg/kg) by oral administration. […]
For histopathology, tissues were fixed in 10% neutral formalin and then embedded in paraffin. […] Histological examination was performed in a blinded fashion and the severity of colitis was scored as described previously. […] E-cadherin and F4/80 binding was detected by Alexa Fluor 488 conjugated goat anti-mouse IgG or goat anti-rat IgG (1:600, Invitrogen), respectively. […]
To assess the local levels of IL-6, IL-1β, TNF-α, organ cultures were generated from naïve, GDN, PBS/DSS and GDN/DSS challenged mice. […] The local levels of PGE2 were determined by a PGE2-specific EIA (Cayman Chemical, Ann Arbor, Mich.) as described previously. […]

Raw264.7 macrophages = assay: Internalization assay (GDN uptake with endocytosis inhibitors); format: cell-based, mouse; conditions: 30 min pretreatment: 50 μM amiloride, 12.5 μM chlorpromazine or 100 μM indomethacin; 2 μg/ml PKH26-labeled GDNs, 3 h
Method: Macrophages were plated on Lab-Tek chamber slide (Sigma) and incubated for 24 h in growth medium. Before the uptake assay, GDNs were labeled with PKH26, sucrose gradient purified and diluted in PBS. Uptake was performed by incubating cell cultures with 2 μg/ml of GDNs for 3 h in a humid chamber (37° C., 5% CO2). For inhibition experiments, cell cultures were pre-incubated with individual inhibitors for 30 min before performing the uptake experiments.

Structure (SMILES) | symptoms of colitis vs PBS treated mice (colon tissue damage, colon length reduction, E-cadherin expression) [1] | inhibition of GDN uptake (Raw264.7 macrophages)
CN(Cc1cnc2nc(N)nc(N)c2n1)c1ccc(C(=O)N[C@@H](CCC(=O)O)C(=O)O)cc1 [free MTX, methotrexate] | aggravated symptoms of colitis | –
COc1ccc2c(c1)c(CC(=O)O)c(C)n2C(=O)c1ccc(Cl)cc1 [indomethacin] | – | did not significantly alter
